According to BigSolDB 2.1:

Compound: O=[N+]([O-])c1ncccc1O
- solubility (mole fraction) (in THF, 278.15 K): 0.213
- solubility (mole fraction) (in THF, 283.15 K): 0.243
- solubility (mole fraction) (in THF, 288.15 K): 0.274
- solubility (mole fraction) (in THF, 293.15 K): 0.312
- solubility (mole fraction) (in THF, 298.15 K): 0.35
- solubility (mole fraction) (in THF, 303.15 K): 0.396
- solubility (mole fraction) (in THF, 308.15 K): 0.446
- solubility (mole fraction) (in THF, 313.15 K): 0.502
- solubility (mole fraction) (in THF, 318.15 K): 0.57
- solubility (mole fraction) (in acetone, 278.15 K): 0.157
- solubility (mole fraction) (in acetone, 283.15 K): 0.184
- solubility (mole fraction) (in acetone, 288.15 K): 0.219
- solubility (mole fraction) (in acetone, 293.15 K): 0.259
- solubility (mole fraction) (in acetone, 298.15 K): 0.304
- solubility (mole fraction) (in acetone, 303.15 K): 0.354
- solubility (mole fraction) (in acetone, 308.15 K): 0.41
- solubility (mole fraction) (in acetone, 313.15 K): 0.474
- solubility (mole fraction) (in acetone, 318.15 K): 0.544
- solubility (mole fraction) (in acetonitrile, 278.15 K): 0.113
- solubility (mole fraction) (in acetonitrile, 283.15 K): 0.141
- solubility (mole fraction) (in acetonitrile, 288.15 K): 0.171
- solubility (mole fraction) (in acetonitrile, 293.15 K): 0.207
- solubility (mole fraction) (in acetonitrile, 298.15 K): 0.247
- solubility (mole fraction) (in acetonitrile, 303.15 K): 0.299
- solubility (mole fraction) (in acetonitrile, 308.15 K): 0.359
- solubility (mole fraction) (in acetonitrile, 313.15 K): 0.428
- solubility (mole fraction) (in acetonitrile, 318.15 K): 0.502
- solubility (mole fraction) (in ethanol, 278.15 K): 0.0236
- solubility (mole fraction) (in ethanol, 283.15 K): 0.0334
- solubility (mole fraction) (in ethanol, 288.15 K): 0.0482
- solubility (mole fraction) (in ethanol, 293.15 K): 0.0653
- solubility (mole fraction) (in ethanol, 298.15 K): 0.0924
- solubility (mole fraction) (in ethanol, 303.15 K): 0.128
- solubility (mole fraction) (in ethanol, 308.15 K): 0.173
- solubility (mole fraction) (in ethanol, 313.15 K): 0.232
- solubility (mole fraction) (in ethanol, 318.15 K): 0.306
- solubility (mole fraction) (in ethyl acetate, 278.15 K): 0.108
- solubility (mole fraction) (in ethyl acetate, 283.15 K): 0.128
- solubility (mole fraction) (in ethyl acetate, 288.15 K): 0.151
- solubility (mole fraction) (in ethyl acetate, 293.15 K): 0.181
- solubility (mole fraction) (in ethyl acetate, 298.15 K): 0.215
- solubility (mole fraction) (in ethyl acetate, 303.15 K): 0.254
- solubility (mole fraction) (in ethyl acetate, 308.15 K): 0.301
- solubility (mole fraction) (in ethyl acetate, 313.15 K): 0.357
- solubility (mole fraction) (in ethyl acetate, 318.15 K): 0.423
- solubility (mole fraction) (in isopropanol, 278.15 K): 0.0158
- solubility (mole fraction) (in isopropanol, 283.15 K): 0.0226
- solubility (mole fraction) (in isopropanol, 288.15 K): 0.0318
- solubility (mole fraction) (in isopropanol, 293.15 K): 0.0442
- solubility (mole fraction) (in isopropanol, 298.15 K): 0.0621
- solubility (mole fraction) (in isopropanol, 303.15 K): 0.0863
- solubility (mole fraction) (in isopropanol, 308.15 K): 0.12
- solubility (mole fraction) (in isopropanol, 313.15 K): 0.165
- solubility (mole fraction) (in isopropanol, 318.15 K): 0.224
- solubility (mole fraction) (in methanol, 278.15 K): 0.0395
- solubility (mole fraction) (in methanol, 283.15 K): 0.0551
- solubility (mole fraction) (in methanol, 288.15 K): 0.0807
- solubility (mole fraction) (in methanol, 293.15 K): 0.111
- solubility (mole fraction) (in methanol, 298.15 K): 0.153
- solubility (mole fraction) (in methanol, 303.15 K): 0.206
- solubility (mole fraction) (in methanol, 308.15 K): 0.271
- solubility (mole fraction) (in methanol, 313.15 K): 0.352
- solubility (mole fraction) (in methanol, 318.15 K): 0.446
- solubility (mole fraction) (in n-hexane, 278.15 K): 0.00055
- solubility (mole fraction) (in n-hexane, 283.15 K): 0.00077
- solubility (mole fraction) (in n-hexane, 288.15 K): 0.00105
- solubility (mole fraction) (in n-hexane, 293.15 K): 0.00144
- solubility (mole fraction) (in n-hexane, 298.15 K): 0.00192
- solubility (mole fraction) (in n-hexane, 303.15 K): 0.00266
- solubility (mole fraction) (in n-hexane, 308.15 K): 0.00373
- solubility (mole fraction) (in n-hexane, 313.15 K): 0.00522
- solubility (mole fraction) (in n-hexane, 318.15 K): 0.00736
- solubility (mole fraction) (in n-propanol, 278.15 K): 0.0299
- solubility (mole fraction) (in n-propanol, 283.15 K): 0.0391
- solubility (mole fraction) (in n-propanol, 288.15 K): 0.0523
- solubility (mole fraction) (in n-propanol, 293.15 K): 0.0716
- solubility (mole fraction) (in n-propanol, 298.15 K): 0.0947
- solubility (mole fraction) (in n-propanol, 303.15 K): 0.127
- solubility (mole fraction) (in n-propanol, 308.15 K): 0.17
- solubility (mole fraction) (in n-propanol, 313.15 K): 0.224
- solubility (mole fraction) (in n-propanol, 318.15 K): 0.292
- solubility (mole fraction) (in water, 278.15 K): 0.00083
- solubility (mole fraction) (in water, 283.15 K): 0.00107
- solubility (mole fraction) (in water, 288.15 K): 0.00149
- solubility (mole fraction) (in water, 293.15 K): 0.0021
- solubility (mole fraction) (in water, 298.15 K): 0.00283
- solubility (mole fraction) (in water, 303.15 K): 0.00393
- solubility (mole fraction) (in water, 308.15 K): 0.00544
- solubility (mole fraction) (in water, 313.15 K): 0.00753
- solubility (mole fraction) (in water, 318.15 K): 0.0109
